Test results: PubChem BioAssay AID330 (DTP/NCI, 2004)
“And” between values parts separate entries of the source, which are not always exact repeats. Equal entries are not always repeated. Toxic doses and inconclusive results are not listed. The calls were made as follows: active = survival T/C of 150% or more; inactive = T/C below 125% in these data.

Test system: P388 leukemia ip, CD2F1 mice, survival T/C
Experiment: NCI In Vivo Anticancer Drug Screen. Data for tumor model P388 Leukemia (intraperitoneal) in CD2F1 (CDF1) mice
Conditions: endpoint: median survival time, higher = longer survival
Summary of the method: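 Mice carrying the transplanted tumor received test compound or vehicle. Survival was recorded in each group, and the value is the treated-group measurement divided by that of the vehicle-treated control group.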

[1] = dose: 6.25 mg/kg/injection, schedule: Q01DX009 (ip), vehicle: saline
[2] = dose: 12.5 mg/kg/injection, schedule: Q01DX009 (ip), vehicle: saline
[3] = dose: 50.0 mg/kg/injection, schedule: Q01DX009 (ip), vehicle: saline
[4] = dose: 50.0 mg/kg/injection, schedule: Q01DX005 (ip), vehicle: saline
[5] = dose: 100.0 mg/kg/injection, schedule: Q01DX005 (ip), vehicle: saline
[6] = dose: 6.25 mg/kg/injection, schedule: Q01DX009 (ip), vehicle: saline with Tween-80
[7] = dose: 12.5 mg/kg/injection, schedule: Q01DX009 (ip), vehicle: saline with Tween-80
[8] = dose: 25.0 mg/kg/injection, schedule: Q01DX009 (ip), vehicle: saline with Tween-80
[9] = dose: 6.25 mg/kg/injection, schedule: Q01DX005 (ip), vehicle: Klucel (hydroxypropylcellulose) (HPC)
[10] = dose: 12.5 mg/kg/injection, schedule: Q01DX005 (ip), vehicle: Klucel (hydroxypropylcellulose) (HPC)
[11] = dose: 50.0 mg/kg/injection, schedule: Q01DX005 (ip), vehicle: Klucel (hydroxypropylcellulose) (HPC)
[12] = dose: 60.0 mg/kg/injection, schedule: Q01DX005 (ip), vehicle: saline

Measured: T/C

Oc1ccc(/C=N/Nc2nnc(N/N=C/c3ccc(O)cc3O)c3ccccc23)c(O)c1
inactive: dose: 3.12 mg/kg/injection, schedule: Q01DX009 (ip), vehicle: saline 106 % of control | dose: 3.12 mg/kg/injection, schedule: Q01DX009 (ip), vehicle: suspension in saline 116 % of control | [1] 112 % of control | [2] 117 % of control

O=CNc1c(Br)cc2c(c1Br)Cc1cc([N+](=O)[O-])ccc1-2
inactive: [1] 97 % of control | [2] 90 % of control | dose: 25.0 mg/kg/injection, schedule: Q01DX009 (ip), vehicle: saline 92 % of control | [3] 89 % of control

CCN(CC)CCOC1CCCCC1
inactive: [4] 105 % of control | [5] 98 % of control

Cc1ccc(S(=O)(=O)CC(=O)CC(=O)C(=O)Nc2ccc(C)cc2C)cc1
inactive: dose: 60.0 mg/kg/injection, schedule: Q01DX005 (ip), vehicle: saline with Tween-80 108 % of control | dose: 120.0 mg/kg/injection, schedule: Q01DX005 (ip), vehicle: saline with Tween-80 106 % of control | dose: 240.0 mg/kg/injection, schedule: Q01DX005 (ip), vehicle: saline with Tween-80 99 % of control

CC(=O)c1c(O)c(C)c(O)c2c1OC1=CC(=O)C(C(C)=O)C(=O)C12C (centres undefined)
inactive: [6] 100 % of control and 122 % of control | [7] 115 % of control and 97 % of control | [2] 97 % of control | [8] 101 % of control and 103 % of control (2×) | [3] 109 % of control and 111 % of control

NNC(=O)NN1C(=O)c2cc(S(=O)(=O)O)cc3c(N)c(S(=O)(=O)O)cc(c23)C1=O
inactive: [4] 98 % of control | [5] 104 % of control | dose: 200.0 mg/kg/injection, schedule: Q01DX005 (ip), vehicle: saline 99 % of control

CC(C)c1cc(C(=O)O)c(O)c(C(C)C)c1.CC(C)c1cc(C(=O)O)c(O)c(C(C)C)c1.[Mn]
inactive: dose: 15.0 mg/kg/injection, schedule: Q01DX005 (ip), vehicle: Klucel (hydroxypropylcellulose) (HPC) 104 % of control and 106 % of control | dose: 15.0 mg/kg/injection, schedule: Q01DX005 (ip), vehicle: other 101 % of control | dose: 30.0 mg/kg/injection, schedule: Q01DX005 (ip), vehicle: Klucel (hydroxypropylcellulose) (HPC) 110 % of control and 114 % of control | dose: 30.0 mg/kg/injection, schedule: Q01DX005 (ip), vehicle: other 105 % of control and 109 % of control | dose: 60.0 mg/kg/injection, schedule: Q01DX005 (ip), vehicle: Klucel (hydroxypropylcellulose) (HPC) 116 % of control and 117 % of control and 120 % of control | dose: 60.0 mg/kg/injection, schedule: Q01DX005 (ip), vehicle: other 114 % of control and 95 % of control | dose: 120.0 mg/kg/injection, schedule: Q01DX005 (ip), vehicle: Klucel (hydroxypropylcellulose) (HPC) 112 % of control and 116 % of control | dose: 120.0 mg/kg/injection, schedule: Q01DX005 (ip), vehicle: other 114 % of control and 87 % of control | dose: 240.0 mg/kg/injection, schedule: Q01DX005 (ip), vehicle: other 100 % of control

O=C1CC2NC(=O)C(CCCCN1)NC2=O (centres undefined)
inactive: dose: 1.5 mg/kg/injection, schedule: Q01DX009 (ip), vehicle: Klucel (hydroxypropylcellulose) (HPC) 100 % of control | dose: 3.0 mg/kg/injection, schedule: Q01DX009 (ip), vehicle: Klucel (hydroxypropylcellulose) (HPC) 99 % of control | dose: 6.0 mg/kg/injection, schedule: Q01DX009 (ip), vehicle: Klucel (hydroxypropylcellulose) (HPC) 97 % of control | dose: 12.0 mg/kg/injection, schedule: Q01DX009 (ip), vehicle: Klucel (hydroxypropylcellulose) (HPC) 109 % of control

Nc1ccc2nc[nH]c2c1
inactive: dose: 25.0 mg/kg/injection, schedule: Q04DX002 (ip), vehicle: Klucel (hydroxypropylcellulose) (HPC) 101 % of control | dose: 50.0 mg/kg/injection, schedule: Q04DX002 (ip), vehicle: Klucel (hydroxypropylcellulose) (HPC) 104 % of control | dose: 100.0 mg/kg/injection, schedule: Q04DX002 (ip), vehicle: Klucel (hydroxypropylcellulose) (HPC) 101 % of control and 90 % of control

CCn1c(COc2c(I)cc(I)c3cccnc23)n[nH]c1=S
inactive: [9] 96 % of control | [10] 98 % of control | dose: 25.0 mg/kg/injection, schedule: Q01DX005 (ip), vehicle: Klucel (hydroxypropylcellulose) (HPC) 102 % of control | [11] 98 % of control

O=C1NCC2CCCCC12 (centres undefined)
inactive: [11] 107 % of control | dose: 100.0 mg/kg/injection, schedule: Q01DX005 (ip), vehicle: Klucel (hydroxypropylcellulose) (HPC) 99 % of control | dose: 200.0 mg/kg/injection, schedule: Q01DX005 (ip), vehicle: Klucel (hydroxypropylcellulose) (HPC) 100 % of control

C=C1CCC2C1C1C(C(C)C)CCC21C (centres undefined)
inactive: [7] 92 % of control | [8] 96 % of control | dose: 50.0 mg/kg/injection, schedule: Q01DX009 (ip), vehicle: saline with Tween-80 93 % of control

CC(=O)OC1C(Br)C2CC1C1(Cl)C(=O)C(Cl)=C(Cl)C(=O)C21Cl (centres undefined)
inactive: [3] 99 % of control | dose: 100.0 mg/kg/injection, schedule: Q01DX009 (ip), vehicle: saline 101 % of control | dose: 200.0 mg/kg/injection, schedule: Q01DX009 (ip), vehicle: saline 99 % of control

Cc1c(O)c2c(c(O)c1Cc1cccc(CN)c1)C(=O)c1ccccc1C2=O
inactive: dose: 1.56 mg/kg/injection, schedule: Q01DX009 (ip), vehicle: water 91 % of control | dose: 25.0 mg/kg/injection, schedule: Q01DX009 (ip), vehicle: water 89 % of control

CC(C)(c1cc(Cl)c(OCCO)c(Cl)c1)c1cc(Cl)c(OCCO)c(Cl)c1
inactive: dose: 100.0 mg/kg/injection, schedule: Q04DX003 (ip), vehicle: saline with Tween-80 100 % of control | dose: 200.0 mg/kg/injection, schedule: Q04DX003 (ip), vehicle: saline with Tween-80 100 % of control | dose: 400.0 mg/kg/injection, schedule: Q04DX003 (ip), vehicle: saline with Tween-80 95 % of control

C=C1C(=O)OC2/C=C(\CO)C3OC3C3OC3(C)CC(OC(=O)/C(=C/C)CO)C12 (centres undefined)
inactive: dose: 3.12 mg/kg/injection, schedule: Q01DX005 (ip), vehicle: Klucel (hydroxypropylcellulose) (HPC) 99 % of control and 106 % of control | [9] 100 % of control and 107 % of control and 110 % of control | [10] 105 % of control and 106 % of control | [11] 100 % of control and 109 % of control

O=S(=O)(c1ccccc1)[C@H]1[C@@H]2O[C@@H]2C[C@@H]1O
inactive: [12] 104 % of control | dose: 120.0 mg/kg/injection, schedule: Q01DX005 (ip), vehicle: saline 103 % of control | dose: 240.0 mg/kg/injection, schedule: Q01DX005 (ip), vehicle: saline 98 % of control

O[C@H](c1cc(C(F)(F)F)nc2c(C(F)(F)F)cccc12)[C@@H]1CCCCN1
inactive: dose: 3.13 mg/kg/injection, schedule: Q01DX009 (ip), vehicle: saline with Tween-80 109 % of control | [6] 102 % of control | [7] 116 % of control | [8] 106 % of control

O=c1c2cnccc2cc2n1CCc1c-2[nH]c2ccccc12
inactive: dose: 3.12 mg/kg/injection, schedule: Q01DX009 (ip), vehicle: saline with Tween-80 101 % of control | [6] 101 % of control and 86 % of control | [7] 101 % of control | [8] 110 % of control

O=C1CN(c2cccc(Cl)c2)C(=O)CN1/N=C/c1ccco1
inactive: dose: 50.0 mg/kg/injection, schedule: Q01DX005 (ip), vehicle: saline with Tween-80 109 % of control | dose: 100.0 mg/kg/injection, schedule: Q01DX005 (ip), vehicle: saline with Tween-80 107 % of control | dose: 200.0 mg/kg/injection, schedule: Q01DX005 (ip), vehicle: saline with Tween-80 98 % of control

N=C(N)Cl
inactive: dose: 15.0 mg/kg/injection, schedule: Q01DX005 (ip), vehicle: saline 100 % of control | dose: 30.0 mg/kg/injection, schedule: Q01DX005 (ip), vehicle: saline 94 % of control | [12] 88 % of control

CC/C=C\C/C=C\CC1(O)C=C(Cl)C(=O)C1C(OC(C)=O)C(OC(C)=O)C(CCCC(=O)OC)OC(C)=O (centres undefined)
inactive: dose: 2.25 mg/kg/injection, schedule: Q01DX005 (ip), vehicle: Klucel (hydroxypropylcellulose) (HPC) 103 % of control | dose: 4.5 mg/kg/injection, schedule: Q01DX005 (ip), vehicle: Klucel (hydroxypropylcellulose) (HPC) 94 % of control | dose: 9.0 mg/kg/injection, schedule: Q01DX005 (ip), vehicle: Klucel (hydroxypropylcellulose) (HPC) 100 % of control | dose: 18.0 mg/kg/injection, schedule: Q01DX005 (ip), vehicle: Klucel (hydroxypropylcellulose) (HPC) 95 % of control | dose: 36.0 mg/kg/injection, schedule: Q01DX005 (ip), vehicle: Klucel (hydroxypropylcellulose) (HPC) 95 % of control

NC(=O)NNC(=O)NNC(N)=O
inactive: dose: 100.0 mg/kg/injection, schedule: Q04DX003 (ip), vehicle: saline 98 % of control | dose: 200.0 mg/kg/injection, schedule: Q04DX003 (ip), vehicle: saline 96 % of control | dose: 400.0 mg/kg/injection, schedule: Q04DX003 (ip), vehicle: saline 106 % of control
